Source: publication PMC2920549, “Bromopyrrole Alkaloids as Lead Compounds against Protozoan Parasites” (Marine Drugs, 2010)
pIC50: −log10 of the molar value. In brackets after ≈: the same amount, converted by molar mass. Several values for one entry are separate records, joined by “and”; a condition that tells them apart may be missing. Equal entries are not always repeated. Where two headings read alike, the source gives them in different places. Marks after values point to notes of the source that are not given here.

Assays:
[1] = tested on: T. b. rhodesiense STIB 900 bloodstream forms; assay: Activity against Trypanosoma brucei rhodesiense (resazurin assay); type: cell-based; settings: for IC50: Trypanosoma brucei, read-out: IC50 T. b. rhodesiense; for IC50 / IC50 T. b. rhodesiense: 72 h; for Selectivity index (CC50 L6 / IC50 parasite) for T. brucei rhodesiense: CC50 L6 cells divided by IC50 T. b. rhodesiense
Protocol: (§1) The toxicity on mammalian cells was assessed against L6 cells, a primary cell line derived from rat skeletal myoblasts.
STIB 900 strain of T. b. rhodesiense and the standard drug melarsoprol were used for the assay. […] Data were analyzed using the microplate reader software Softmax Pro (Molecular Devices Cooperation, Sunnyvale, CA, USA).

[2] = tested on: T. cruzi Tulahuen strain C2C4 intracellular amastigotes in L6 rat skeletal myoblasts; assay: Activity against Trypanosoma cruzi (beta-galactosidase/CPRG assay in L6 cells); type: cell-based; settings: for IC50: Trypanosoma cruzi, TULAHUEN, L6, 96 h; for IC50 T. cruzi: 96 h
Protocol: Then the substrate CPRG/Nonidet (50 μl) was added to all wells. A color reaction developed within 2–6 h and could be read photometrically at 540 nm. Data were transferred into the graphic programme Softmax Pro (Molecular Devices), which calculated IC50 values. […] Benznidazole was the standard drug used.

[3] = tested on: P. falciparum K1 strain erythrocytic stages; assay: Activity against Plasmodium falciparum ([3H]-hypoxanthine incorporation); type: cell-based; settings: for IC50: Plasmodium falciparum; for IC50 P. falciparum: K1 strain; for Selectivity index (CC50 L6 / IC50 parasite) for P. falciparum: CC50 L6 cells divided by IC50 P. falciparum
Protocol: as §1
The radioactivity was counted using a Betaplate^TM liquid scintillation counter (Wallac, Zurich, Switzerland). […] IC50 values were calculated from graphically plotted dose-response curves.

[4] = tested on: L. donovani strain MHOM/ET/67/L82 axenic amastigotes; assay: Activity against Leishmania donovani (axenic amastigotes, resazurin); type: cell-based; settings: for IC50: Leishmania donovani, read-out: IC50 L. donovani; for IC50 / IC50 L. donovani: 72 h; for Selectivity index (CC50 L6 / IC50 parasite) for L. donovani: CC50 L6 cells divided by IC50 L. donovani
Protocol: as §1
Amastigotes of L. donovani strain MHOM/ET/67/L82 were grown in axenic culture at 37 °C in SM medium at pH 5.4 supplemented with 10% heat-inactivated fetal bovine serum under an atmosphere of 5% CO2 in air. One hundred μL of culture medium with 10^5 amastigotes from axenic culture with or without a serial drug dilution were seeded in 96-well microtiter plates. […] Data were analyzed using the software Softmax Pro. Decrease of fluorescence (=inhibition) was expressed as percentage of the fluorescence of control cultures and plotted against the drug concentrations. From the sigmoidal inhibition curves the IC50 values were calculated. […] Miltefosine was used as a reference drug.

[5] = target: T1, PfFabZ (β-hydroxyacyl-ACP dehydratase) (Plasmodium falciparum, UniProt Q965D7); assay: biochemical
T1 construct: made in house
T1 sequence (Q965D7 19-230): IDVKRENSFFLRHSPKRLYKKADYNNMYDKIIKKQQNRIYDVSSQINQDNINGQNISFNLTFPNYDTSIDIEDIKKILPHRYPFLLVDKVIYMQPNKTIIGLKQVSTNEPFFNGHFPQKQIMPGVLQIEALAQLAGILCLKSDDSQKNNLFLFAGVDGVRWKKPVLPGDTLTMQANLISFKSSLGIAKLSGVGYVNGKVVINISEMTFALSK
Protocol: Expression and purification of the PfFab enzymes as well as the assays were performed as described [29]. […] Measurements were carried out in Nundron Surface sterile 96-well plates, using 20 mM Hepes and 150 mM NaCl at pH 7.4. Compounds were dissolved in DMSO (maximum final concentration 1%). A dilution series of 50 μg/mL to 0.0005 μg/mL of dissolved compounds was measured. For PfFabI, 400 μM NADH (cofactor, Sigma) was added to 2 μg enzyme and reaction started by addition of 300 μM crotonyl-CoA (substrate, Sigma). The change of absorbance of the mixture was recorded spectrophotometrically at 340 nm for 40 minutes. Triclosan was used as a positive control and was analyzed the same way. For PfFabG 400 μM NADPH (cofactor, Fluka) was added to 0.5 μg enzyme and reaction started by addition of 300 μM acetoacetyl-CoA (substrate, Sigma). The change of absorbance of the mixture was recorded spectrophotometrically at 340 nm for 20 minutes. (-)-Epigallocatechin gallate (Sigma) was used as a positive control and was analyzed the same way. For PfFabZ, 600 μM crotonoyl-CoA (substrate, Sigma) was added to 0.5 μg enzyme. The change of absorbance of the mixture was recorded spectrophotometrically at 260 nm for 20 minutes. (−)-Epigallocatechin gallate was used as a positive control. IC50 values were estimated from graphically plotted dose-response curves. […]

[6] = Cytotoxicity against L6-cells (resazurin); type: cell-based, rat; settings: rat
Protocol: as §1
(§2) Assays were performed in 96-well microtiter plates, each well containing 100 μL of RPMI 1640 medium supplemented with 1% L-glutamine (200 mM) and 10% fetal bovine serum, and 4 × 10^4 L-6 cells (a primary cell line derived from rat skeletal myoblasts). Serial drug dilutions of seven 3-fold dilution steps covering a range from 90 to 0.123 μg/mL were prepared. After 72 h of incubation the plates were inspected under an inverted microscope to assure growth of the controls and sterile conditions. 10 μl of a resazurin solution (12.5 mg resazurin dissolved in 100 mL distilled water) was then added to each well and the plates incubated for another 2 h. Then the plates were read with a Spectramax Gemini XS microplate fluorometer using an excitation wavelength of 536 nm and an emission wavelength of 588 nm. Data were analyzed using the microplate reader software Softmax Pro. Each CC50 value obtained is the mean of at least two separate experiments performed in duplicate. Podophyllotoxin was the standard drug used.

L6 cells [7] = assay: Cytotoxicity against L6-cells (resazurin); type: cell-based, rat; settings: 72 h
Protocol: as §1, §2

[8] = tested on: L. donovani strain MHOM/ET/67/L82 axenic amastigotes; design: method as in PMID 17765547; settings: earlier study; cited from earlier work
[9] = tested on: PfFabI (enoyl-ACP reductase); design: method as in PMID 17765547; settings: previous project; cited from earlier work
L6 cells [10] = tested on: L6 cells; design: method as in PMID 17765547; settings: earlier study; cited from earlier work
[11] = tested on: T. b. rhodesiense STIB 900 bloodstream forms; design: method as in PMID 17765547; settings: earlier study; cited from earlier work
[12] = tested on: P. falciparum K1 strain erythrocytic stages; design: method as in PMID 17765547; settings: earlier study; cited from earlier work
[13] = tested on: T. cruzi Tulahuen strain C2C4 intracellular amastigotes in L6 rat skeletal myoblasts; design: method as in PMID 17765547; settings: earlier study; cited from earlier work
[14] = K1, K1 strain, erythrocytic stage, read-out: IC50 P. falciparum
[15] = 72 h, read-out: CC50 Cytotoxicity L6 cells
[16] = K1, read-out: IC50 P. falciparum

| Compound | IC50 ([1]; STIB 900 bloodstream forms) [µg/mL] | IC50 [2] [µg/mL] | IC50 [3, 14] [µg/mL] | IC50 ([4]; axenic amastigotes) [µg/mL] | CC50 at 72 h [6] [µg/mL] | also measured |
| --- | --- | --- | --- | --- | --- | --- |
| N=C(N)NCCCC[C@H](NC(=O)c1cc(Br)c[nH]1)C(=O)O [Compound 12, bromopyrrolohomoarginin] | 67.1 (≈ 186 µM) | > 90 | > 20 | 34.5 (≈ 95.7 µM) | 62.3 (≈ 173 µM) | IC50 ([5]; read-out: IC50 PfFabZ (converted)): 777 nM |
| COc1cc([C@@H]2c3cc4c(cc3[C@H](O)[C@H]3COC(=O)[C@H]23)OCO4)cc(OC)c1OC [Podophyllotoxin, reference compound] |  |  |  |  |  | CC50 at 72 h [6, 15]: 0.005 µg/mL (≈ 0.0121 µM) |
| CCN(CC)CCCC(C)Nc1ccnc2cc(Cl)ccc12 (stereo not drawn) [Chloroquine, reference compound] |  |  |  |  |  | IC50 [3, 16]: 0.065 µg/mL (≈ 0.203 µM) |
| O=C(O)CC1CNC(=O)c2cc(Br)c(Br)n21 (stereo not drawn) [Compound 8, longamide B] | 1.53 (≈ 4.35 µM) | > 33 | 7.46 (≈ 21.2 µM) | 3.85 (≈ 10.9 µM) | 9.94 (≈ 28.2 µM) | Selectivity index (CC50 L6 / IC50 parasite) for T. brucei rhodesiense [1]: 6.5; IC50 T. cruzi [2]: 33.03 µg/mL (≈ 93.8 µM); Selectivity index (CC50 L6 / IC50 parasite) for L. donovani [4]: 2.6 |
| Nc1nc(N)nc(Nc2ccc([As]3SCC(CO)S3)cc2)n1 (stereo not drawn) [Melarsoprol, reference compound] |  |  |  |  |  | IC50 [1]: 0.004 µg/mL |
| agelongine [Compound 14] |  |  |  |  |  | IC50 T. b. rhodesiense ([1]; STIB 900 bloodstream forms): 49.96 µg/mL; IC50 T. cruzi [2]: >90 µg/mL; IC50 P. falciparum ([3]; erythrocytic stage): 11.18 µg/mL; IC50 L. donovani ([4]; axenic amastigotes): 43.22 µg/mL; CC50 Cytotoxicity L6 cells (L6 cells [7]): >90 µg/mL |
| CCCCCCCCCCCCCCCCOP(=O)([O-])OCC[N+](C)(C)C [Miltefosine, reference compound] |  |  |  | 0.21 (≈ 0.515 µM) |  | IC50 L. donovani ([4]; axenic amastigotes): 0.206 ^c μg/mL |
| O=C1NC[C@@H](O)n2c1cc(Br)c2Br [Compound 9, longamide A] | > 90 | > 90 | > 20 | > 90 | > 90 |  |
| O=C(Cn1ccnc1[N+](=O)[O-])NCc1ccccc1 [Benznidazole, reference compound] |  | 0.312 (≈ 1.2 µM) |  |  |  |  |
| Nc1ncc(/C=C/CNC(=O)c2cc(Br)c(Br)[nH]2)[nH]1 [Compound 1a, oroidin] |  |  |  |  |  | IC50 L. donovani [8]: >30 ^1 μg/mL; PfFabI inhibition (in words) [9]: potent PfFAbI inhibitors; CC50 Cytotoxicity L6 cells (L6 cells [10]): 88.60 ^1 μg/mL; IC50 T. b. rhodesiense [11]: 17.30 ^1 μg/mL; IC50 P. falciparum [12]: 3.90 ^1 μg/mL; IC50 T. cruzi [13]: >30 ^1 μg/mL |
| NCC1C2CN3C(=O)c4cc(Br)c(Br)n4C4N=C(N)NC43C2C2(N=C(N)NC2O)C1Cl (stereo not drawn) [Compound 11, dibromopalau’amine] | 0.46 (≈ 0.796 µM) |  |  |  |  | Selectivity index (CC50 L6 / IC50 parasite) for T. brucei rhodesiense [1]: about 10; Selectivity index (CC50 L6 / IC50 parasite) for P. falciparum [3]: 3–4; IC50 [3, 16]: 1.48 µg/mL (≈ 2.56 µM); Selectivity index (CC50 L6 / IC50 parasite) for L. donovani [4]: 3–4; IC50 [4]: 1.09 µg/mL (≈ 1.89 µM); CC50 at 72 h [6, 15]: 4.46 µg/mL (≈ 7.72 µM) |
| Nc1ncc(/C=C/CNC(=O)c2cc(Br)c[nH]2)[nH]1 [Compound 2, hymenidin] | 77.6 (≈ 250 µM) |  | 12.5 (≈ 40.4 µM) | 29.9 (≈ 96.3 µM) | 75.7 (≈ 244 µM) |  |
| Nc1ncc(C2=CCNC(=O)c3[nH]c(Br)c(Br)c32)[nH]1 [Compound 5, stevensine] | 25.3 (≈ 65.5 µM) | > 90 | 4.88 (≈ 12.6 µM) | 75.9 (≈ 196 µM) | > 90 |  |
| NC1=NC(=O)/C(=C/CCNC(=O)c2cc(Br)c[nH]2)N1 [Compound 3, dispacamide B] | 40.1 (≈ 123 µM) | > 90 | 1.09 (≈ 3.34 µM) | > 90 | > 90 | Selectivity index (CC50 L6 / IC50 parasite) for P. falciparum [3]: > 67.2; IC50 P. falciparum ([3]; erythrocytic stage): 1.34 µg/mL (≈ 4.11 µM); IC50 L. donovani ([4]; axenic amastigotes): completely inactive; CC50 Cytotoxicity L6 cells (L6 cells [7]): devoid of any cytotoxicity |
| NC1=NC(=O)/C(=C/C(O)CNC(=O)c2cc(Br)c[nH]2)N1 (stereo not drawn) [Compound 4, dispacamide D] | 68.2 (≈ 199 µM) | > 90 | > 20 | 53.8 (≈ 157 µM) | > 90 |  |
| Nc1ncc(/C=C/CNC(=O)c2cc(Br)c(Br)[nH]2)[nH]1 [Compound 1b, oroidin] |  |  |  |  |  | IC50 L. donovani [8]: 15.40 ^1 μg/mL; PfFabI inhibition (in words) [9]: potent PfFAbI inhibitors; CC50 Cytotoxicity L6 cells (L6 cells [10]): 76.40 ^1 μg/mL; IC50 T. b. rhodesiense [11]: 12.20 ^1 μg/mL; IC50 P. falciparum [12]: 7.90 ^1 μg/mL; IC50 T. cruzi [13]: >30 ^1 μg/mL |
| spongiacidin B [Compound 6] |  |  |  |  |  | IC50 T. b. rhodesiense ([1]; STIB 900 bloodstream forms): 13.58 µg/mL and 13.48 µg/mL; IC50 P. falciparum ([3]; erythrocytic stage): 1.34 µg/mL and 1.09 µg/mL; IC50 L. donovani ([4]; axenic amastigotes): 41.59 µg/mL; CC50 Cytotoxicity L6 cells (L6 cells [7]): 35.6 µg/mL and 35.61 µg/mL |
| O=C1CCNC(=O)c2[nH]c(Br)cc21 [Compound 7, bromoaldisin] | 61.5 (≈ 253 µM) | > 90 | > 20 | > 90 | > 90 |  |
| Nc1nc([C@H]2[C@H](CNC(=O)c3cc(Br)c[nH]3)[C@@H](CNC(=O)c3cc(Br)c[nH]3)[C@@H]2c2c[nH]c(N)n2)c[nH]1 [Compound 10, sceptrin] | 9.71 (≈ 15.7 µM) | > 33 | 11.1 (≈ 17.9 µM) | 51.6 (≈ 83.2 µM) | > 90 | IC50 T. cruzi [2]: 60.08 µg/mL (≈ 96.9 µM) |
| O=C(O[C@@H]1Cc2c(O)cc(O)cc2O[C@@H]1c1cc(O)c(O)c(O)c1)c1cc(O)c(O)c(O)c1 [(−)-epigallocatechin gallate, reference compound] |  |  |  |  |  | pIC50 [5]: 6.16 |
| C[C@]1(COC(=O)c2cc(Br)c[nH]2)C[C@@H](C(=O)O)N=CN1 [Compound 13, manzacidin A] | 73.8 (≈ 214 µM) | > 90 | > 20 | 75.8 (≈ 220 µM) | > 90 |  |
